According to patent US9446061B2, “Composition containing antibiotics and lysophosphatidylcholine for boosting immunity or treatment of bacterial infections” (priority 2011, dated 2016):

Key:
[1] = tested on: CPA-induced immunosuppressive mice; assay: Thymus and spleen organ weights in CPA-treated mice; format: in vivo, ICR mice; conditions: LPC 1, DW286 0.5, Mix 0.75 mg/kg
Experimental: At sacrifice of CPA-treated model, the wet-weights of spleen and thymus were measured and regarded as absolute weight and then relative organ weight (% of body weight) was calculated as follow:
=[(Absolute organ weights/Body weight at sacrifice individual)×100]

[2] = tested on: thymic CD3+, CD4+, CD8+ and TNF-α+ cells; assay: Immunohistochemistry of thymus (cortex and medulla) in CPA-treated mice; format: in vivo, ICR mice
Experimental: (§1) After deparraffinized, CD3 epitope retrievals were conducted in 10 mM Tris-1 mM EDTA Buffer (pH 9.0), CD4 and CD8 in 1 mM EDTA Buffer (pH 8.0), and TNF-α in 10 mM Citrate Buffer (pH 6.0) as previous methods. Primary anti-antibodies used in the invention were as following table.
(§2) The water bath with a staining dish, containing a buffer, was preheated until the temperature reached 95-100. The staining dish was placed at room temperature and the slides were cooled for 20 minutes. After epitope retrivals, sections were immunostained as following steps
(§3) First, the sections were incubated with methanol and 0.3% H2O2 for 30 min to block endogenous peroxidase activity at room temperature, and then rinsed three times in 0.01M phosphate buffered saline (PBS; pH 7.2) for 3 times. Then, the sections were incubated with the normal horse serum blocking solution (Vector Lab. Inc., CA, USA., dilution 1:100) for 1 hr at room temperature in a humidity chamber, to block non-specific binding of immunoglobulin, and then rinsed three times in 0.01M PBS. The sections were incubated with four types of primary antisera for 12 hrs at 4 in a humidity chamber, and then rinsed three times in 0.01M PBS. The sections were incubated with universal biotinylated secondary antibody for 1 hr at room temperature in a humidity chamber, and then rinsed three times in 0.01M PBS. The sections were incubated with ABC reagents (Vectastain Elite ABC Kit, Vector Lab. Inc., CA, USA. Dilution 1:50) for 1 hr at room temperature in a humidity chamber, and then rinsed three times in 0.01M PBS. The sections were incubated in the peroxidase substrate kit (Vector Lab. Inc., CA) for 30 seconds at room temperature, and then rinsed three times in 0.01M PBS. The sections were counterstained with the Mayer's hematoxylin solution, and then rinsed in running tap water for 30 minutes. The sections were dehydrated through 95% ethanol for 2 min and 100% ethanol for […], and then rinsed in xylene for 2 hrs. After that, the sections were observed using a cover slip with permanent mounting medium under the light microscope (Zeiss, Germany).
(§4) Histomorphometry—Among 1000 splenic or thymic cells, the numbers (N) of immunoreactive cells (CD3+, CD4+, CD8+, and TNF-α+) were observed as N/1000 splenocytes or thymocytes using automated image analysis. In thymus, the counts were conducted in the both cortex and medulla separately.

blood WBC = assay: Blood WBC numbers and differential counts in CPA-treated mice; format: in vivo, ICR mice; conditions: LPC 1, DW286 0.5, Mix 0.75 mg/kg
Experimental: Blood were collected at sacrifice of CPA-treated model from vena cava and total blood leukocyte numbers were calculated using counting chamber, diluting pipette and Türk solution as dilution solution. All numbers were calculated as ×10^3/mm^3. In addition, cell numbers of lymphocytes, eosinophils, neutrophils, monocytes and basophils were calculated among 100 total leukocytes in smear blood samples stained with Giemsa.

[3] = tested on: CPA-CLP sepsis mouse model; assay: Combination effects of LPC and antibiotics (colistin, tobramycin, fusidin) in CPA-CLP sepsis mouse model (SEP013); single i.v. 6 hrs after CLP; format: in vivo, ICR mice; conditions: mpk: LPC 5, DW286aa 5, Colistin 5, Tobra 4, Fusidin 80, LPC + Colistin 5 + 5, LPC + Tobra 5 + 4, LPC + Fusidin 5 + 80
Text: CPA is well known as an immunosuppressive agent. […] Then, the abdomen was closed following the general procedure.
Then, body weight and mortality changes were observed.

[4] = Body weight of CPA-CLP mice (Example 9); conditions: LPC 1, DW286 0.5, Mix 0.75 mg/kg
Experimental: (§5) In CPA-CLP model, body weight and mortalities were measured once a day for 5 days with automatic electronic balances (Sartorius Co., Ltd., USA), once a day for 2 days in CPA-treated model. All animals were overnight fasted at CPA dosing, CLP or initial dosing to reduce differences from feeding. In addition, body weight gains were calculated as follows:
CPA-CLP Model: Body weight at sacrifice—at CLP(5 days)
Then, mortalities, changes in thymus and spleen weights, changes in white blood cell (WBC) number, and changes in thymic and splenic CD3+, CD4+, CD8+, and TNF-α+ cell numbers, were evaluated together with changes in bone marrow polychromatic erythrocytes contain micronuclei (MNPCE) number.
(§6) Appropriate doses of candidate materials were dissolved in 5% human serum albumin, and subcutaneously dosed at 10 ml/kg (of body weight), 4 times 12-hr intervals from 6 hrs after CLP or 24 hrs after last CPA-dosing, respectively. In the INTACT, CPA, or CPA-CLP control groups, an equal volume of 5% human serum albumin was dosed by the same procedure.

[5] = tested on: splenic CD3+, CD4+, CD8+ and TNF-α+ cells; assay: Immunohistochemistry of spleen in CPA-treated mice; format: in vivo, ICR mice
Experimental: as §1, §2, §3, §4

[6] = Body weight of CPA-treated mice (Example 9); s.c. 4 times 12-hr intervals from 24 hrs after last CPA-dosing; conditions: LPC 1, DW286 0.5, Mix 0.75 mg/kg
Experimental: In the INTACT control group, an equal volume of physiological saline was dosed instead of CPA by the same method.
In Intact control animals, equal volume of saline was only dosed instead of CPA with same methods.
as §5
CPA-Treat Model: Body weight at sacrifice—at initial dosing (2 days)
To find suitable dosing regime of LPC and DW286AA combination during the development of new therapeutic agents against sepsis, evaluation was conducted by using CPA-CLP— and CPA-induced immunosuppressive mice. […] Then, mortalities, changes in thymus and spleen weights, changes in white blood cell (WBC) number, and changes in thymic and splenic CD3+, CD4+, CD8+, and TNF-α+ cell numbers, were evaluated together with changes in bone marrow polychromatic erythrocytes contain micronuclei (MNPCE) number.
as §6

[7] = LPC 1, DW286 0.5, Mix 0.75 mg/kg
[8] = thymus cortex, CPA-treated mice, Mean ± S.D., n = 9
[9] = thymus medulla, CPA-treated mice, Mean ± S.D., n = 9
[10] = At First CPA dosing (overnight fasted)
[11] = spleen, CPA-treated mice, Mean ± S.D., n = 9

## CON=C1CN(c2nc3c(cc2F)c(=O)c(C(=O)O)cn3C2CC2)CC1(C)CN.Cl (stereo not shown) [DW286aa, 7-[3-(aminomethyl)-4-(methoxyimino)-3-methyltetrahydro-1H-1-pyrrolyl]-1-cyclopropyl-6-fluoro-4-oxo-1,4-dihydro[1,8]naphthyridine-3-carboxylic acid hydrochloric acid salt]
[1]; % of body weight at sacrifice
  Spleen weight, Relative: 0.117 ± 0.023 %
  Thymus weight, Relative: 0.082 ± 0.018 %
[1]
  absolute splenic weights, change compared to CPA control: −7.08%
  absolute thymic weights, change compared to CPA control: −2.73%
  relative splenic weights, change compared to CPA control: −7.46%
  relative thymic weights, change compared to CPA control: −3.12%
[1]; at sacrifice
  Spleen weight, Absolute: 0.045 ± 0.009 g
  Thymus weight, Absolute: 0.032 ± 0.008 g
[2]; [7]
  numbers of thymic cortex CD3+ cells, change compared to CPA control: −9.16%
  numbers of thymic cortex CD4+ cells, change compared to CPA control: 21.74%
  numbers of thymic cortex CD8+ cells, change compared to CPA control: 33.33%
  numbers of thymic medulla CD3+ cells, change compared to CPA control: −33.33%
  numbers of thymic medulla CD4+ cells, change compared to CPA control: 27.27%
  numbers of thymic medulla CD8+ cells, change compared to CPA control: −22.22%
  thymic cortex TNF-α+ cells, change compared to CPA control: −13.040%
  thymic medulla TNF-α+ cells, change compared to CPA control: 0.00%
[2]; [8]
  CD3+ cells, Thymus: Cortex (IHC-Histomorphometry): 165.33 N/1000 splenocytes or thymocytes
  CD4+ cells, Thymus: Cortex (IHC-Histomorphometry): 3.11 N/1000 splenocytes or thymocytes
  CD8+ cells, Thymus: Cortex (IHC-Histomorphometry): 4.00 N/1000 splenocytes or thymocytes
  TNF-α+ cells, Thymus: Cortex (IHC-Histomorphometry): 2.22 N/1000 splenocytes or thymocytes
[2]; [9]
  CD3+ cells, Thymus: Medulla (IHC-Histomorphometry): 0.22 N/1000 splenocytes or thymocytes
  CD4+ cells, Thymus: Medulla (IHC-Histomorphometry): 1.78 N/1000 splenocytes or thymocytes
  CD8+ cells, Thymus: Medulla (IHC-Histomorphometry): 1.56 N/1000 splenocytes or thymocytes
  TNF-α+ cells, Thymus: Medulla (IHC-Histomorphometry): 0.00 N/1000 splenocytes or thymocytes
Blood WBC
  blood total WBC numbers, change compared to CPA control: −11.31%
  ratio of lymphocytes, change compared to CPA control: −23.56%
  ratio of monocytes, change compared to CPA control: 13.43%
  ratio of neutrophils, change compared to CPA control: −1.09%
Blood WBC; blood at sacrifice
  Total WBC: 0.41 ± 0.19 ×10^3/mm^3
  WBC differentials: Basophils: 0.89 ± 0.78%
  WBC differentials: Eosinophils: 0.22 ± 0.44%
  WBC differentials: Lymphocytes: 14.56 ± 9.75 %
  WBC differentials: Monocytes: 42.78 ± 17.33 %
  WBC differentials: Neutrophils: 41.56 ± 10.64 %
[3]; 1st CPA treat
  Mortalities: 0
  Survivalities: 100%
[3]; 2nd CPA treat
  Mortalities: 0
  Survivalities: 100%
[3]; At CLP (day 0)
  Mortalities: 0
  Survivalities: 100%
[3]; Day 1
  Mortalities: 0
  Survivalities: 100%
[3]; Day 2
  Mortalities: 0
  Survivalities: 100%
[3]; Day 3
  Mortalities: 2
  Survivalities: 80%
[3]; Total
  Mortalities: 2
  Survivalities: 80%
[4]; 1 day after CLP
  Body weight: 31.50 ± 1.34 g
[4]; 2 days after CLP
  Body weight: 29.88 ± 0.98 g
[4]; 3 days after CLP
  Body weight: 30.97 ± 0.99 g
[4]; At CLP (overnight fasted)
  Body weight: 33.77 ± 1.42 g
[4]; [10]
  Body weight: 34.32 ± 1.32 g
[5]; [7]
  numbers of splenic CD3+ cells, change compared to CPA control: −14.02%
  numbers of splenic CD4+ cells, change compared to CPA control: −10.82%
  numbers of splenic CD8+ cells, change compared to CPA control: −10.63%
  splenic TNF-α+ cells, change compared to CPA control: −13.840%
[5]; [11]
  CD3+ cells, Spleen (IHC-Histomorphometry): 55.89 N/1000 splenocytes or thymocytes
  CD4+ cells, Spleen (IHC-Histomorphometry): 41.22 N/1000 splenocytes or thymocytes
  CD8+ cells, Spleen (IHC-Histomorphometry): 45.78 N/1000 splenocytes or thymocytes
  TNF-α+ cells, Spleen (IHC-Histomorphometry): 40.11 N/1000 splenocytes or thymocytes
[6]; 1 day after second CPA-dosing
  Body weight: 37.46 ± 1.96 g
[6]; 2 days after second CPA-dosing
  Body weight: 38.61 ± 1.95 g
[6]; At Dosing (overnight fasted)
  Body weight: 33.02 ± 1.95 g
[6]; [10]
  Body weight: 36.84 ± 1.83 g
[6]
  Body weight gains during 2 days after dosing: 5.59 ± 1.03 g
  body weight (gains) change compared to the CPA control group: −1.37%
